Measured values taken from patent publication US9044453B2, “Long-acting injectable moxidectin formulations and novel moxidectin crystal forms” (MERIAL, INC., priority 2011, dated 2015).

Assay: Moisture Sorption Gravimetric Analysis (SGA), hygroscopicity
Assay type: physicochemical
Conditions: isothermal 25° C., 5 to 95 % RH
Experimental: Moisture Sorption Gravimetric Analysis (SGA). Utilizing a dynamic SGA100 from VTI, adsorption and desorption profiles were obtained with the following conditions: 1) Isothermal @ 25° C.; 2) Maximum Equilibration Time of 10 minutes; 3) 0.0010 wt % in 5 minutes; and 4) % RH (Relative Humidity) Steps of 5 to 95, and 95 to 5 @ 5% increments.

Compound | hygroscopicity
CO/N=C1\C[C@]2(C[C@@H]3C[C@@H](C/C=C(\C)C[C@@H](C)/C=C/C=C4\CO[C@@H]5[C@H](O)C(C)=C[C@@H](C(=O)O3)[C@]45O)O2)O[C@H](/C(C)=C/C(C)C)[C@H]1C [Crystalline moxidectin, moxidectin] | almost non-hygroscopic
CO/N=C1\C[C@]2(C[C@@H]3C[C@@H](C/C=C(\C)C[C@@H](C)/C=C/C=C4\CO[C@@H]5[C@H](O)C(C)=C[C@@H](C(=O)O3)[C@]45O)O2)O[C@H](/C(C)=C/C(C)C)[C@H]1C [amorphous moxidectin, moxidectin] | slightly hygroscopic
